Source: patent publication US10939681B2, “Tetrazolinone compound and use thereof” (SUMITOMO CHEMICAL COMPANY, LIMITED, priority 2017, dated 2021)

Test system: diamondback moth (Plutella xylostella)
Test: Control test against diamondback moth (Plutella xylostella), cabbage leaf spray
Assay type: in vivo
Details: 500 ppm active ingredient, sprayed on cabbage seedlings 20 mL/seedling, 2nd instar larvae, after 5 days, 25° C.
Protocol: Next, a Test Example is used to show efficacy of the Present compound against pests. In the following Test Example, the test was carried out at 25° C. The Present compound was formulated according to the process described in the Formulation Example 6 to obtain a formulation, and water containing a spreader (0.03% by volume) was added thereto to prepare a diluted solution containing 500 ppm of the active ingredient. Cabbage (Brassicae oleracea) seedlings (on the developmental stage of the second to third true leaf) were planted in a container, and said diluted solution was sprayed into the leaves of the seedlings at a ratio of 20 mL/seedling. Thereafter, the stems and leaves of the seedlings were cut out, and the leaves were placed into a container lined with a filter paper. Approximately five the 2nd instar larvae of diamondback moth (Plutella xylostella) were released into the container. After 5 days, the number of the surviving insects was examined, and the controlling value was calculated by the following equation. […] Controlling value (%)={1−(Cb×Tai)/(Cai×Tb)}×100 wherein the symbols in the equation represent the following meanings. […]

For `Cc1cccc(-n2nnn(C)c2=O)c1Cn1nnn(-c2cccc(C)c2COc2ccn(-c3ccc(Cl)cc3)n2)c1=O` [Present compound], the “Controlling value (control effects)” value was 100%.
